The record followed here is PMC5601360 (Journal of Medicinal Chemistry, 2017).

Experiment [1] deals with T1, human KOP receptor (Homo sapiens, UniProt P41145).
T1 construct: expressed in transfected cells; host or cells: CHO-hKOP cells (gift of Dr. Lawrence Toll, SRI International)
The experiment can be described thus: [35S]GTPγS binding assay using CHO-hKOP cell membranes. It counts as biochemical. To be noted: for EC50: CHO-hKOP membranes, mean ± SEM; for Emax: read-out: [35S]GTPγS KOP % stim. The method, then:
The binding of [^35S]GTPγS to membranes from CHO cells stably expressing human KOP receptors (CHO-hKOP cells) was conducted according to the published procedures.[9a],[9b] CHO-hKOP cell membranes were prepared in buffer A (20 mM HEPES, 10 mM MgCl2, and 100 mM NaCl, pH 7.4). Cell membranes (8–15 μg) in buffer A were incubated with 0.05 nM [^35S]GTPγS, 10 μM GDP, and various concentrations of test compound in a final volume of 1 mL for 60 min at 25 °C. Nonspecific binding was determined using 10 μM GTPγS, and the basal binding was determined in the absence of test ligand. Samples are filtered over glass fiber filters and counted as described for binding assays. […] To determine the KOP antagonist activity, a concentration–response curve for U69,593 was obtained by assessing the [^35S]GTPγS binding to CHO-hKOP cell membranes in the presence or absence of test compound, as previously described.[9b] For each compound, the Schild analysis was conducted, utilizing a full agonist–dose response curve in the presence of at least two concentrations of the antagonist. The equilibrium dissociation constant (Ke) was calculated from the equation Ke = [a]/(DR – 1), where “a” is the concentration of antagonist and DR the virtual shift of the agonist concentration–response curve to the right in the presence of a given concentration of antagonist. All experiments were performed in duplicate and repeated at least three times.
Background: GTPγS resists hydrolysis and so accumulates on activated G proteins.

The target in experiment [2] is T2, human MOP receptor (Homo sapiens, UniProt P35372).
T2 construct: expressed in transfected cells; host or cells: CHO-hMOP cells (gift of Dr. Lawrence Toll, SRI International)
The experiment can be described thus: Competition binding assay, CHO-hMOP cell membranes, [3H]DAMGO. The settings on record: mean ± SEM, read-out: receptor binding affinity Ki MOP. On the procedure: (§1) CHO cells stably expressing recombinant human KOP, MOP, or DOP receptors (CHO-hKOP, CHO-hMOP, and CHO-hDOP cell lines) were kindly provided by Dr. Lawrence Toll (SRI International, Menlo Park, CA). The CHO-hKOP cell line was maintained in Dulbecco’s Minimal Essential Medium (DMEM) supplemented with fetal bovine serum (FBS, 10%), penicillin/streptomycin (0.1%), L-glutamine (2 mM), and geneticin (400 μg/mL). The CHO-hMOP and CHO-hDOP cell lines were maintained in DMEM/Ham’s F-12 medium supplemented with FBS (10%), penicillin/streptomycin (0.1%), L-glutamine (2 mM), and geneticin (400 μg/mL). Cell cultures were maintained at 37 °C in 5% CO2 humidified air.
(§2) . Nonspecific binding was determined using 1–10 μM of the unlabeled counterpart of each radioligand. Assays were performed in 50 mM Tris-HCl buffer (pH 7.4) in a final volume of 1 mL. Cell membranes (15–20 μg) were incubated with the appropriate radioligand and various concentrations of test compound for 60 min at 25 °C. After incubation, reactions were terminated by rapid filtration through Whatman glass fiber filters. Filters were washed three times with 5 mL of ice-cold 50 mM Tris-HCl buffer (pH 7.4) using a Brandel M24R cell harvester (Gaithersburg, MD). Radioactivity retained on the filters was counted by liquid scintillation counting using a Beckman Coulter LS6500 (Beckman Coulter Inc., Fullerton, CA). All binding experiments were performed in duplicate and repeated at least three times. The inhibitory constant Ki values (in nM) were calculated from the competition binding curves by nonlinear regression analysis and the Cheng–Prusoff equation.[16]

The target in experiment [3] is T3, human DOP receptor (Homo sapiens, UniProt P41143).
T3 construct: expressed in transfected cells; host or cells: CHO-hDOP cells (gift of Dr. Lawrence Toll, SRI International)
In words: Competition binding assay, CHO-hDOP cell membranes, [3H]diprenorphine. To be noted: mean ± SEM, read-out: receptor binding affinity Ki DOP. On the procedure:
as §1, §2

For experiment [4], the target named is T1, human KOP receptor. In words: Competition binding assay, CHO-hKOP cell membranes, [3H]U69,593. The settings on record: for Ki: CHO-hKOP membranes, mean ± SEM, read-out: receptor binding affinity Ki KOP; for selectivity DOP/KOP: Ki ratio DOP/KOP; for selectivity MOP/KOP: Ki ratio MOP/KOP. On the procedure:
as §1
as §2, with “Nonspecific” for “. Nonspecific”

Experiment [5] deals with acetic acid-induced writhing in CD1 mice. The experiment can be described thus: Acetic acid-induced writhing assay in mice after sc administration. It counts as in vivo. The settings on record: sc; for ED50: Mus musculus, 0.5 h, CD1 mice, inhibition of writhing at 30 min after drug administration, read-out: antinociceptive ED50 (95% CI). The method, then:
Male CD1 mice (30–35 g, 6–8 weeks old) were obtained from the Center of Biomodels and Experimental Medicine (CBEM) (Innsbruck, Austria) or Charles River (Sulzfeld, Germany). Mice were group-housed in a temperature controlled room with a 12 h light/dark cycle and with free access to food and water. All animal studies were conducted in accordance with ethical guidelines and animal welfare standards according to Austrian regulations for animal research and were approved by the Committee of Animal Care of the Austrian Federal Ministry of Science and Research. Solutions of test compounds were prepared as 1% DMSO solutions in sterile physiological 0.9% saline and further diluted to working doses in saline solution. Test compounds or vehicle (saline) were administered by sc route in a volume of 10 μL/1 g of body weight. All doses are expressed in terms of salts. Separate groups of mice received the respective dose of compound, and individual mice were only used once for behavioral testing. Each experimental group included at least five animals.
Writhing was induced in male CD1 mice by intraperitoneal (ip) injection of a 0.6% acetic acid aqueous solution as described previously.[9a] Groups of mice were administered sc different doses of test compound or saline (control), and then 5 min prior to testing (25 min after drug or saline) each animal received an ip injection of acetic acid solution. Each mouse was placed in individual transparent Plexiglas chambers, and the number of writhes was counted during a 10 min observation period. […] For the antagonism studies, nor-BNI (20 mg/kg) was sc administered 24 h before 2 (5 mg/kg) and 17 (10 mg/kg) was sc administered 15 min before U50,488 (2 mg/kg).

Setting [6] is: percentage stimulation relative to the KOP full agonist U69,593.

SMILES strings stand for the structures. Where only a bound is given, the exact number is not on record here.

As a reminder, the EC50 is the concentration giving half of the maximal effect. Higher therefore signals a need for much substance. In general, Ki refers to a measure of affinity in units of concentration, obtained from inhibition or displacement. The compound `C=CCN(CCc1ccc(O)cc1)CCc1cccc(O)c1` [Compound 16] came in with a 50% effective concentration (EC50) in experiment [1] of 248 ± 89 nM. Moreover, the Emax in experiment [1] (setting [6]) came out at 28.5%. Moreover, in experiment [2], the Ki came to 192 ± 17 nM. Further, in experiment [3], the Ki is 1100 ± 485 nM. In experiment [4], the Ki amounted to 43.5 ± 1.5 nM, the “selectivity DOP/KOP” value is listed as 25 and the “selectivity MOP/KOP” value is recorded as 4.
The ED50 is the dose that gives a 50% effect, or the effect in half of the subjects. Turning to `Cl.Oc1cccc(CCN(CCc2cccc(O)c2)CC2CC2)c1` [Compound 9, 3,3′-[2,2′-(Cyclopropylmethylazanediyl)bis(ethane-2,1-diyl)]diphenol Hydrochloride], the median effective dose (ED50) in experiment [5] worked out at 4.73 mg/kg. Also, a half-maximal response in experiment [1] (EC50) required 20.6 ± 0.6 nM. In experiment [1] (setting [6]), the Emax is 51.3 ± 7.6%. The Ki in experiment [2] was 631 ± 215 nM. For the same compound, the Ki in experiment [3] came to 2850 ± 720 nM. Also, in experiment [4], the inhibitory constant (Ki) came out at 4.62 ± 0.11 nM, the “selectivity DOP/KOP” value is 617 and the “selectivity MOP/KOP” value came out at 137.
For `CC(C)CCN(CCc1cccc(O)c1)CCc1cccc(O)c1.Cl` [Compound 13, 3,3′-[2,2′-(Isoamylazanediyl)bis(ethane-2,1-diyl)]diphenol Hydrochloride], the median effective dose (ED50) in experiment [5] was 2.63 mg/kg. The EC50 in experiment [1] is 16.6 ± 0.7 nM. Moreover, the Emax in experiment [1] (setting [6]) turned out to be 65.6 ± 3.4%. Besides, the Ki in experiment [2] came to 211 ± 17 nM. In addition, the Ki in experiment [3] amounted to 1470 ± 147 nM. In experiment [4], the Ki was found to be 2.1 ± 0.26 nM, the “selectivity DOP/KOP” value is given as 699 and the “selectivity MOP/KOP” value is 100.
In the case of `C=CCN(CCc1cccc(O)c1)CCc1cccc(O)c1.Cl` [Compound 10, 3,3′-[2,2′-(Allylazanediyl)bis(ethane-2,1-diyl)]diphenol Hydrochloride], in experiment [1], the EC50 came to 154 ± 62 nM. In experiment [1] (setting [6]), the “[35S]GTPγS KOP % stim” value is given as 37.5 ± 0.6% and the Emax is 37.5%. In addition, the Ki in experiment [2] was 358 ± 28 nM. The Ki in experiment [3] was 738 ± 16 nM. For the same compound, in experiment [4], the Ki was 19.1 ± 0.6 nM, the “selectivity DOP/KOP” value is recorded as 39 and the “selectivity MOP/KOP” value came to 19.
`Cl.Oc1ccc(CCN(CCc2cccc(O)c2)CC2CCCCC2)cc1` [Compound 15, 3-[2-[(Cyclohexylmethyl)(4-hydroxyphenethyl)amino]ethyl]phenol Hydrochloride]: in experiment [5], the ED50 stood at 1.9 mg/kg. A half-maximal response in experiment [1] (EC50) required 22.2 ± 7.2 nM. Moreover, the Emax in experiment [1] (setting [6]) is not below 80%. The Ki in experiment [2] was 234 ± 112 nM; in experiment [3], 1640 ± 557 nM; in experiment [4], 1.85 ± 0.07 nM.
For `Cl.Oc1cccc(CCN(CCc2cccc(O)c2)CC2CCCCC2)c1` [Compound 11, 3,3′-[2,2′-(Cyclohexylmethylazanediyl)bis(ethane-2,1-diyl)]diphenol Hydrochloride], the ED50 in experiment [5] was 0.95 mg/kg. In experiment [1], the midpoint of the response, the EC50, lay at 17.6 ± 7.1 nM. Further, in experiment [1] (setting [6]), the Emax is not below 80%. Moreover, the values for the inhibition constant Ki in experiment [2], in experiment [3] and in experiment [4] were 167 ± 52 nM, 1430 ± 506 nM and 0.14 ± 0.04 nM, respectively. Besides, the “lower KOP affinity vs compound 4” value in experiment [4] (Ki comparison) is recorded as “about 2 fold”. Besides, the “selectivity DOP/KOP” value in experiment [4] is on record as 10229. In experiment [4], the “selectivity MOP/KOP” value was 1193.
On to `Cl.Oc1cccc(CCN(CCc2cccc(O)c2)CC2CCCC2)c1` [Compound 12, 3,3′-[2,2′-(Cyclopentylmethylazanediyl)bis(ethane-2,1-diyl)]diphenol Hydrochloride], for which, in experiment [5], the ED50 was found to be 1.19 mg/kg. Also, the “reduction in antinociceptive potency vs compound 3” value in experiment [5] (ED50 comparison) was “about 2 fold”. This compound yielded an EC50 in experiment [1] of 13.7 ± 3.5 nM. The “decrease in in vitro agonist potency vs compound 3” value in experiment [1] (EC50 comparison) is recorded as “about 3 fold”. In addition, the Emax in experiment [1] (setting [6]) was not below 80%. Further, the Ki in experiment [2] is 584 ± 119 nM. The Ki in experiment [3] turned out to be 2780 ± 545 nM. Besides, in experiment [4], the inhibition constant Ki came to 0.31 ± 0.04 nM, the “selectivity DOP/KOP” value is reported as 8952 and the “selectivity MOP/KOP” value worked out at 1884.
In the case of `Cl.Oc1cccc(CCN(CCc2cccc(O)c2)CC2CCC2)c1` [Compound 8, 3,3′-[2,2′-(Cyclobutylmethylazanediyl)bis(ethane-2,1-diyl)]diphenol Hydrochloride], in experiment [5], the ED50 stood at 1.71 mg/kg. This compound showed an EC50 in experiment [1] of 4.44 ± 1.36 nM. The Emax in experiment [1] (setting [6]) was 71.1 ± 5.2%. Besides, the Ki in experiment [2] turned out to be 230 ± 43 nM. In experiment [3], the Ki was determined as 3340 ± 844 nM. Besides, in experiment [4], the Ki was found to be 0.38 ± 0.09 nM, the “selectivity DOP/KOP” value was determined as 8789 and the “selectivity MOP/KOP” value is 605.
In the case of `CC(C)CCN(CCc1ccccc1)CCc1cccc(O)c1.Cl` [Compound 7, 3-[2-[(Isoamyl)(phenethyl)amino]ethyl]phenol Hydrochloride], the median effective dose (ED50) in experiment [5] was determined as 2.78 mg/kg. The same compound came in with an EC50 in experiment [1] of 22.1 ± 3.1 nM. Further, in experiment [1] (setting [6]), the Emax came out at 74.7 ± 3.6%. Further, the Ki in experiment [2] worked out at 259 ± 86 nM. For the same compound, in experiment [3], the Ki is 2740 ± 677 nM. Further, in experiment [4], the Ki is 2.69 ± 0.43 nM, the “selectivity DOP/KOP” value was 1020 and the “selectivity MOP/KOP” value stood at 96.
Turning to `Cl.Oc1cccc(CCN(CCc2ccccc2)C2CCC2)c1` [Compound 6, 3-[2-[(Cyclobutyl)(phenethyl)amino]ethyl]phenol Hydrochloride], the EC50 in experiment [1] was 46.1 ± 13.9 nM. Besides, the Emax in experiment [1] (setting [6]) was found to be 50.7 ± 5%. Also, the Ki in experiment [2] stood at 670 ± 174 nM. Also, in experiment [3], the Ki came to 3540 ± 38 nM. In addition, in experiment [4], the Ki turned out to be 10.3 ± 1.2 nM, the “selectivity DOP/KOP” value is recorded as 344 and the “selectivity MOP/KOP” value is listed as 65.
In experiment [1], `c1ccc(CCN(CCc2ccccc2)CC2CCC2)cc1` [Compound 22, N-(Cyclobutylmethyl)-N-phenethyl-2-phenylethanamine] yielded an EC50 of 359 ± 116 nM. Further, the Emax in experiment [1] (setting [6]) is not below 80%. Also, the results for the Ki in experiment [2], in experiment [3] and in experiment [4] were 1060 ± 263 nM, 2180 ± 881 nM and 79.1 ± 12.5 nM, respectively. Also, the “selectivity DOP/KOP” value in experiment [4] was determined as 28. Moreover, the “selectivity MOP/KOP” value in experiment [4] was determined as 13.
